From ChEMBL document CHEMBL5058644, “Data for DCP probe JNJ-39758979” (2022)

Columns and labels:
Histamine H4 receptor [1] = target: T1, Histamine H4 receptor (Homo sapiens, UniProt Q9H3N8); assay: Binding assay
Histamine H4 receptor [2] = target: T1, Histamine H4 receptor; assay: Cell based cAMP Assays (pA2); conditions: read-out: pA2 (converted)

T1 sequence (Q9H3N8 whole entry): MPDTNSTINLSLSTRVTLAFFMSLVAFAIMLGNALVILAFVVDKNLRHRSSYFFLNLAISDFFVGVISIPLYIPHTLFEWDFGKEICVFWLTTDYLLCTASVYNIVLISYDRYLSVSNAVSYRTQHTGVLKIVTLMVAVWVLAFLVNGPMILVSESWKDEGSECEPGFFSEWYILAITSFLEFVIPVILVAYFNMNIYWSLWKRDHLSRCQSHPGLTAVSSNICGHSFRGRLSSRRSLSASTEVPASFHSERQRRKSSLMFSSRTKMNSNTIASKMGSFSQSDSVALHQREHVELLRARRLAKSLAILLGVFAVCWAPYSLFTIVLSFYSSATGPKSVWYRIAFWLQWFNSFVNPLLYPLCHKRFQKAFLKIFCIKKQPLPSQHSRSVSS

CN[C@@H]1CCN(c2cc(C(F)(F)F)nc(N)n2)C1 was tested, and the Ki (Histamine H4 receptor [1]) was > 10 µM (not active) and the Kb (Histamine H4 receptor [2]) was > 100 µM (not active).
